Measurements as given in patent publication US9474744B2, “Beta-lactam compounds for treating diabetes” (STEM CELL MEDICINE LTD., priority 2011, dated 2016).

Legend:
CD4+ human T cells = experiment: Human Autoimmune and Inflammatory Response Gene Array, anti-CD3-stimulated T cells with or without antibiotic; type: cell-based; details: 120 min anti-CD3; for % decrease by Cef: cefuroxime 50 μg/ml, ±SD, relative to control
Protocol: T cells were purified from the peripheral bloods of healthy human donors (Blood Bank, Sheba Medical center). The whole blood was incubated (20 min, 22° C.) with RosetteSep™ human T cell enrichment mixture (StemCell Technologies, Vancouver, Canada). The remaining unsedimented cells were then loaded onto lymphocyte separation medium (ICN Biomedicals, Irvine, Calif.), isolated by density centrifugation, and washed with PBS. […] In a second round of purification, CD3^+ T cells were labeled for selection with a magnetically coupled mAb against CD4 (Miltenyi Biotec, Auburn, Calif.).
Human CD4 T cells were isolated as described, and incubated in 24 well plates (Nunc), 4×10^6 cells/ml with plate bound anti-human CD3 (OKT3) at 2 μg/ml. The stimulation was performed in RPMI medium supplemented with 0.1% BSA. […] RNA was extracted from samples and used to prepare probes for gene array in accord with the manufacturer's instructions (SuperArray Bioscience, Frederick, Md.). Adequate labeling of the probes was tested before hybridization. Three healthy donors were tested in stimulation with cefuroxime. The membranes were analyzed online with the Image Data Acquisition and Expression Analysis (SuperArray Bioscience).
The Human Autoimmune and Inflammatory Response Gene Array (SuperArray Bioscience corporation, Frederick, Md., USA) was used for analysis of gene expression by the T cells. This array contains 367 genes including cytokines, chemokines and their receptors, transcription factors and signaling proteins. […] Analysis of the results was performed using the GEArray analysis program. […] To verify the results detected by the gene array study, a panel of six genes was designed and tested by real-time PCR: CCR4, ACVR2, JAK1, STAT4, TLR2 and NFKBIE. The cDNA that was used was prepared from the same RNA used for the gene array experiment.

[1] = tested on: encephalitogenic BP10 line; experiment: Adoptive EAE: BP10 T-cell line stimulated in vitro with test substance, then injected into naive rats; type: in vivo, rat
Protocol: Antigen-specific T-cell lines were established from lymph node cells that had been stimulated with myelin basic protein (MBP; 10 μg/ml) for 3 days in stimulation medium as described below. Following stimulation, the T-cell blasts were isolated on LYMPHOPREP™ (Nycomed Pharma, Oslo, Norway) and seeded in propagation medium. Propagation medium was identical to stimulation medium without autologous serum, but supplemented with fetal calf serum 10% and T-cell growth factors from the supernatant of Con A stimulated spleen cells 10% (Mor et al. (1990) J Clin Invest, 85, 1594-1598). Animals were injected intra-peritoneally with 107 MBP-stimulated T cells, following 6-8 cycles of in vitro stimulations. It is known that MBP-reactive lines undergo a reduction in pathogenicity after 6 or more in vitro stimulations. In some experiments the BP10 line was stimulated with phorbol myristate acetate (PMA; 50 ng/ml) and ionomycin (500 ng/ml) for 3 days in stimulation medium, without antigen-presenting cells.
Active EAE was induced by subcutaneous injection of 25 μg guinea-pig MBP (GpMBP) in complete Freund's adjuvant (CFA). […] Adoptive EAE was transferred by intra-peritoneal injection of guinea-pig MBP-activated cells of the BP10 line as described in Mor et al. (1993) J Clin Invest, 92, 2199-2206. […] Clinical scoring was: +1, paralysis of tail; +1.5, paresis of posterior paws and ataxia; +2, paraplegia; +3, paralysis extending to thoracic spine; +4, a moribund state.
Treatment with cefuroxime in vivo could affect many different host agents involved in EAE or AA as well as influencing the rats' bacterial flora. To test whether the antibiotic might directly modify the behavior of effector T cells, an encephalitogenic T-cell line was stimulated in the presence or absence of cefuroxime in vitro. The weakly encephalitogenic BP10 line was used, and was stimulated for 3 days with MBP in the presence or absence of cefuroxime (50 μg/ml). The activated T cells were then washed to remove the antibiotic, the T cells were injected intra-peritoneally into naïve recipient rats (10^7 per rat), and EAE was scored. The BP10 line at later stimulations was used, when its pathogenic potential is reduced, allowing to detect both suppression and enhancement of disease. […] To rule out antigen presenting cells (APC) as the target of the beta-lactam antibiotic, the encephalitogenic BP10 line was stimulated without APC using PMA (50 ng/ml) and Ionomycin (500 ng/ml) in the presence or absence of cefuroxime.
Additional beta-lactam antibiotics were tested for their effect on the adoptive transfer of EAE.
A control group was injected with the untreated line.

CO/N=C(\C(=O)N[C@@H]1C(=O)N2C(C(=O)O)=C(COC(N)=O)CS[C@H]12)c1ccco1 [cefuroxime]
number of genes down-regulated (CD4+ human T cells; array of 367 genes, 50 μg/ml): Fifty-seven
% decrease by Cef (CD4+ human T cells; gene ACTB): 49 ± 11%
% decrease by Cef (CD4+ human T cells; gene ACVR1): 42 ± 0.7%
% decrease by Cef (CD4+ human T cells; gene ACVR2): 60 ± 14.8%
% decrease by Cef (CD4+ human T cells; gene CCL5): 21 ± 5.6%
% decrease by Cef (CD4+ human T cells; gene CCL11): 18 ± 6.6%
% decrease by Cef (CD4+ human T cells; gene CCR4): 39 ± 2%
% decrease by Cef (CD4+ human T cells; gene CCR6): 53 ± 5.6%
% decrease by Cef (CD4+ human T cells; gene CCR7): 38 ± 8.1%
% decrease by Cef (CD4+ human T cells; gene CD28): 51 ± 2.1%
% decrease by Cef (CD4+ human T cells; gene CD40LG): 33 ± 7.1%
% decrease by Cef (CD4+ human T cells; gene CREB1): 19 ± 4.9%
% decrease by Cef (CD4+ human T cells; gene CREBBP): 40 ± 9.9%
% decrease by Cef (CD4+ human T cells; gene CXCL10): 39 ± 3%
% decrease by Cef (CD4+ human T cells; gene EGR3): 38 ± 2.8%
% decrease by Cef (CD4+ human T cells; gene GFI1): 45 ± 14%
% decrease by Cef (CD4+ human T cells; gene HRAS): 30 ± 9.8%
% decrease by Cef (CD4+ human T cells; gene IL1B): 54 ± 7.0%
% decrease by Cef (CD4+ human T cells; gene IL2RB): 50 ± 9.9%
% decrease by Cef (CD4+ human T cells; gene IL2RG): 57 ± 9.8%
% decrease by Cef (CD4+ human T cells; gene IL9R): 27.5 ± 3%
% decrease by Cef (CD4+ human T cells; gene IL16): 50 ± 7.8%
% decrease by Cef (CD4+ human T cells; gene IRAK1): 44 ± 2.1%
% decrease by Cef (CD4+ human T cells; gene JAK1): 53 ± 13.4%
% decrease by Cef (CD4+ human T cells; gene JUN): 49 ± 2.2%
% decrease by Cef (CD4+ human T cells; gene LTA): 17 ± 10%
% decrease by Cef (CD4+ human T cells; gene MAP2K4): 52 ± 14.1%
% decrease by Cef (CD4+ human T cells; gene MAP3K1): 53 ± 12%
% decrease by Cef (CD4+ human T cells; gene MAP3K2): 36 ± 12%
% decrease by Cef (CD4+ human T cells; gene MAP3K7): 46 ± 9.9%
% decrease by Cef (CD4+ human T cells; gene MAPK9): 42 ± 10.9%
% decrease by Cef (CD4+ human T cells; gene NFKB1): 43 ± 3.5%
% decrease by Cef (CD4+ human T cells; gene NFKB2): 53 ± 10.6%
% decrease by Cef (CD4+ human T cells; gene NFKBIE): 63 ± 11%
% decrease by Cef (CD4+ human T cells; gene NFKBIL1): 54 ± 12.5%
% decrease by Cef (CD4+ human T cells; gene PAK1): 40 ± 2.4%
% decrease by Cef (CD4+ human T cells; gene PIN1): 45 ± 12.1%
% decrease by Cef (CD4+ human T cells; gene RANBP5): 33 ± 3.5%
% decrease by Cef (CD4+ human T cells; gene REL): 45 ± 1.9%
% decrease by Cef (CD4+ human T cells; gene RFX5): 36 ± 4.2%
% decrease by Cef (CD4+ human T cells; gene RFXAP): 27 ± 12%
% decrease by Cef (CD4+ human T cells; gene SDF2): 28 ± 12%
% decrease by Cef (CD4+ human T cells; gene SELL): 46 ± 7.0%
% decrease by Cef (CD4+ human T cells; gene SMAD4): 47 ± 7.0%
% decrease by Cef (CD4+ human T cells; gene SMAD7): 47 ± 4.2%
% decrease by Cef (CD4+ human T cells; gene SP3): 39 ± 9.9%
% decrease by Cef (CD4+ human T cells; gene SRF): 38 ± 1.9%
% decrease by Cef (CD4+ human T cells; gene STAT1): 32 ± 11%
% decrease by Cef (CD4+ human T cells; gene STAT4): 47 ± 9.3%
% decrease by Cef (CD4+ human T cells; gene STAT6): 47 ± 7.9%
% decrease by Cef (CD4+ human T cells; gene TGFBR3): 44 ± 3.5%
% decrease by Cef (CD4+ human T cells; gene TGIF): 43 ± 3.5%
% decrease by Cef (CD4+ human T cells; gene TLR2): 52 ± 14%
% decrease by Cef (CD4+ human T cells; gene TNFRSF11): 43 ± 2%
% decrease by Cef (CD4+ human T cells; gene TNFα): 29 ± 8.5%
% decrease by Cef (CD4+ human T cells; gene TRAF5): 43 ± 2.2%
% decrease by Cef (CD4+ human T cells; gene TRAF6): 43 ± 3.5%
% decrease by Cef (CD4+ human T cells; gene YY1): 23 ± 9.1%
severity of adoptive EAE in recipient rats ([1]; BP10 line stimulated 3 days with MBP in presence of 50 μg/ml antibiotic, 10^7 cells per rat): markedly enhanced the manifestations of EAE
severity of adoptive EAE in recipient rats ([1]; BP10 line stimulated 3 days with MBP in presence of 50 μg/ml antibiotic, 10^7 cells per rat, listed as Cefuroxime): enhances the pathogenicity of the BP10 line
severity of adoptive EAE in recipient rats ([1]; BP10 line stimulated without APC using PMA (50 ng/ml) and Ionomycin (500 ng/ml)): significantly more severe
severity of adoptive EAE in recipient rats ([1]; dose-response, BP10 line stimulated with 5 μg/ml): ineffective
severity of adoptive EAE in recipient rats ([1]; dose-response, BP10 line stimulated with 25 μg/ml): enhancing effect similar to that of 50 μg/ml
